The target in one experiment is T1, FAAH (Mus musculus, UniProt O08914).
T1 construct: Proteomes (mouse brain membrane fraction or cell lysates); from tissue; host or cells: mouse brain membrane fraction (or cell lysates)
T1 sequence (O08914 1-579): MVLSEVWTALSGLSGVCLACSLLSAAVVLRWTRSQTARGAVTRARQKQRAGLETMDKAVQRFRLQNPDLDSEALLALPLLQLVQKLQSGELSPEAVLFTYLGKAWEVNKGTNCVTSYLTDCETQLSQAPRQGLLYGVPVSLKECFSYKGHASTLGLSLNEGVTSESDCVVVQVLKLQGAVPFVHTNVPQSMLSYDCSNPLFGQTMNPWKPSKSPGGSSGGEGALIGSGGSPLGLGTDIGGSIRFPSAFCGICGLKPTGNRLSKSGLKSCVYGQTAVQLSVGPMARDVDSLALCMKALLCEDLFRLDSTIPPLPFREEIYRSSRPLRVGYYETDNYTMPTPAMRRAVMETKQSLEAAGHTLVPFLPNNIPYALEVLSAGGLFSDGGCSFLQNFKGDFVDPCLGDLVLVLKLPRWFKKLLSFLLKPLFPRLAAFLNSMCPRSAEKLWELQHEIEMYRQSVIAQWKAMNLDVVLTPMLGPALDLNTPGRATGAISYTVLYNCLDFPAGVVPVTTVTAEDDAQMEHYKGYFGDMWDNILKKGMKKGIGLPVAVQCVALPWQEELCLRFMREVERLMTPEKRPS
Nature of the experiment: In vitro competitive activity-based protein profiling (mouse), FAAH gel band. The class given is biochemical. The settings on record: for IC50: mouse; for inhibition at 1 µM: read-out: FAAH % inh. 1 μM. In outline:
(§1)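 Residual enzyme activity is taken from in-gel fluorescence after SDS-PAGE. Proteome from mouse brain membranes or cell lysates (total protein 1.0 mg/mL) sees inhibitor for 30 min, then FP-Rh or HT-01 probe (50 μM DMSO stock) for 30 min, both steps at 37 °C.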

Experiment [1] has as its target T2, MAGL (Mus musculus, UniProt O35678).
T2 construct: Proteomes (mouse brain membrane fraction or cell lysates); from tissue; host or cells: mouse brain membrane fraction (or cell lysates)
T2 sequence (O35678 1-303): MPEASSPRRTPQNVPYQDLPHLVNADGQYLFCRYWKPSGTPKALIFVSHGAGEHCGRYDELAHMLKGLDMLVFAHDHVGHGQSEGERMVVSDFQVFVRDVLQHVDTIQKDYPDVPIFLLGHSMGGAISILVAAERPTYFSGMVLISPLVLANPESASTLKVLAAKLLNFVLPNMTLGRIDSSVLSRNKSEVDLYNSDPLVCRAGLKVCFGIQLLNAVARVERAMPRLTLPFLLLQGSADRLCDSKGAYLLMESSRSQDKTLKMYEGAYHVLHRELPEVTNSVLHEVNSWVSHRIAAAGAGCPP
Nature of the experiment: In vitro competitive activity-based protein profiling (mouse), MAGL gel band. To be noted: for IC50: mouse; for inhibition at 1 µM: read-out: MAGL % inh. 1 μM. The class given is biochemical. In outline:
as §1

For experiment [2], the target named is T2, MAGL. Nature of the experiment: Mouse brain proteomes from inhibitor treated mice (oral gavage, sacrificed 4 h after administration). The format is in vivo. The settings on record: read-out: MAGL % inh. 5 mg/kg. How it is done: Compounds are tested to assess their MAGL and other serine hydrolase activity using the following in vitro and in vivo assays.
Preparation of Mouse Brain Proteomes from Inhibitor Treated Mice.
Inhibitors were administered to wild-type C57Bl/6J by oral gavage in a vehicle of polyethylene glycol. Each animal was sacrificed 4 h following administration and brain proteomes were prepared and analyzed according to previously established methods (See Niphakis, M. J., et al. (2011) ACS Chem. Neurosci. and Long, J. Z., et al. Nat. Chem. Biol. 5:37-44)

Where only a bound is given, the exact number is not on record here.

For `CC(=O)Nc1ccn(C(=O)N2CCC3(CCCN3Cc3ccc(C(F)(F)F)cc3N3CCOCC3)CC2)n1` [Example 10, N-(1-(1-(2-morpholino-4-(trifluoromethyl)benzyl)-1,8-diazaspiro[4.5]decane-8-carbonyl)-1H-pyrazol-3-yl)acetamide], on FAAH, the IC50 – broadly, the midpoint of a concentration-inhibition curve – fell in the range of 1000 to 10000 nM and the inhibition at 1 µM fell in the range of 0 to 25%. On MAGL [1], the IC50 is no more than 100 nM and the inhibition at 1 µM was no less than 75%. In addition, the inhibition at 5 mg/kg on MAGL [2] lay in the range of 0 to 25%.

In the case of `CC(=O)Nc1ccn(C(=O)N2CCC3(CCCN3Cc3ccc(C(F)(F)F)cc3N3CCC(F)CC3)CC2)n1` [Example 12, N-(1-(1-(2-(4-fluoropiperidin-1-yl)-4-(trifluoromethyl)benzyl)-1,8-diazaspiro[4.5]decane-8-carbonyl)-1H-pyrazol-3-yl)acetamide], at FAAH, the IC50 lay within 1000 to 10000 nM and the inhibition at 1 µM lay in the range of 0 to 25%. Besides, at MAGL [1], the IC50 is no more than 100 nM and the inhibition at 1 µM is no less than 75%. For the same molecule, the inhibition at 5 mg/kg on MAGL [2] was in the range of 0 to 25%.

Regarding `CC(=O)Nc1ccn(C(=O)N2CCC3(CCCN3Cc3ccc(Cl)cc3N3CCCC3)CC2)n1` [Example 14, N-(1-(1-(4-chloro-2-(pyrrolidin-1-yl)benzyl)-1,8-diazaspiro[4.5]decane-8-carbonyl)-1H-pyrazol-3-yl)acetamide], at FAAH, the IC50 lay within 1000 to 10000 nM and the inhibition at 1 µM fell in the range of 0 to 25%. Besides, on MAGL [1], the IC50 is no more than 100 nM and the inhibition at 1 µM is no less than 75%. In addition, the inhibition at 5 mg/kg on MAGL [2] was in the range of 25 to 50%.

Turning to `CC(=O)Nc1ccn(C(=O)N2CCC3(CCCN3Cc3ccc(Cl)cc3N3CCC(F)CC3)CC2)n1` [Example 18, N-(1-(1-(4-chloro-2-(4-fluoropiperidin-1-yl)benzyl)-1,8-diazaspiro[4.5]decane-8-carbonyl)-1H-pyrazol-3-yl)acetamide], on FAAH, the IC50 was in the range of 1000 to 10000 nM and the inhibition at 1 µM lay within 0 to 25%. Further, at MAGL [1], the IC50 is no more than 100 nM and the inhibition at 1 µM is no less than 75%. Further, the inhibition at 5 mg/kg at MAGL [2] is 0 to 25%.

For `CC(=O)Nc1ccn(C(=O)N2CCC3(CCCN3Cc3ccc(C(F)(F)F)cc3N3CC4CCC(C3)O4)CC2)n1` [Example 20, N-(1-(1-(2-(8-oxa-3-azabicyclo[3.2.1]octan-3-yl)-4-(trifluoromethyl)benzyl)-1,8-diazaspiro[4.5]decane-8-carbonyl)-1H-pyrazol-3-yl)acetamide], at FAAH, the IC50 lay in the range of 1000 to 10000 nM and the inhibition at 1 µM is 0 to 25%. Also, on MAGL [1], the IC50 is no more than 100 nM and the inhibition at 1 µM is no less than 75%. For the same molecule, on MAGL [2], the inhibition at 5 mg/kg is 0 to 25%.

For the molecule `CC(=O)Nc1ccn(C(=O)N2CCC3(CCCN3Cc3ccc(C(F)(F)F)cc3N3CCC4(CC3)CCN(S(C)(=O)=O)C4)CC2)n1` [Example 26, N-(1-(1-(2-(2-(methylsulfonyl)-2,8-diazaspiro[4.5]decan-8-yl)-4-(trifluoromethyl)benzyl)-1,8-diazaspiro[4.5]decane-8-carbonyl)-1H-pyrazol-3-yl)acetamide], at FAAH, the IC50 lay within 1000 to 10000 nM and the inhibition at 1 µM lay in the range of 0 to 25%. Moreover, at MAGL [1], the IC50 is no more than 100 nM and the inhibition at 1 µM is no less than 75%. Moreover, the inhibition at 5 mg/kg at MAGL [2] lay in the range of 0 to 25%.

In the case of `CC(=O)Nc1ccn(C(=O)N2CCC3(CCCN3Cc3ccc(C(F)(F)F)cc3N3CCC4(CCOCC4)C3)CC2)n1` [Example 28, N-(1-(1-(2-(8-oxa-2-azaspiro[4.5]decan-2-yl)-4-(trifluoromethyl)benzyl)-1,8-diazaspiro[4.5]decane-8-carbonyl)-1H-pyrazol-3-yl)acetamide], at FAAH, the IC50 lay within 1000 to 10000 nM and the inhibition at 1 µM lay within 0 to 25%. Further, at MAGL [1], the IC50 is no more than 100 nM and the inhibition at 1 µM was no less than 75%. In addition, the inhibition at 5 mg/kg at MAGL [2] is 0 to 25%.

Turning to `CC(=O)Nc1ccn(C(=O)N2CCC3(CCCN3Cc3ccc(C(F)(F)F)cc3N3CCC(F)(F)CC3)CC2)n1` [Example 29, N-(1-(1-(2-(4,4-difluoropiperidin-1-yl)-4-(trifluoromethyl)benzyl)-1,8-diazaspiro[4.5]decane-8-carbonyl)-1H-pyrazol-3-yl)acetamide], on FAAH, the IC50 was in the range of 1000 to 10000 nM and the inhibition at 1 µM was in the range of 25 to 50%. At MAGL [1], the IC50 was no more than 100 nM and the inhibition at 1 µM is no less than 75%. Moreover, the inhibition at 5 mg/kg on MAGL [2] lay within 0 to 25%.

Take `CCN1CCN(c2cc(C(F)(F)F)ccc2CN2CCCC23CCN(C(=O)n2ccc(NC(C)=O)n2)CC3)CC1` [Example 31, N-(1-(1-(2-(4-ethylpiperazin-1-yl)-4-(trifluoromethyl)benzyl)-1,8-diazaspiro[4.5]decane-8-carbonyl)-1H-pyrazol-3-yl)acetamide]: on FAAH, the IC50 is 1000 to 10000 nM and the inhibition at 1 µM lay within 0 to 25%. Besides, on MAGL [1], the IC50 was 100 to 1000 nM and the inhibition at 1 µM was no less than 75%. Further, the inhibition at 5 mg/kg at MAGL [2] fell in the range of 25 to 50%.

As for `CC(=O)Nc1ccn(C(=O)N2CCC3(CCCN3Cc3ccc(C(F)(F)F)cc3N3CC4COCC4C3)CC2)n1` (stereo not shown) [Example 32, N-(1-(1-(2-(dihydro-1H-furo[3,4-c]pyrrol-5(3H,6H,6aH)-yl)-4-(trifluoromethyl)benzyl)-1,8-diazaspiro[4.5]decane-8-carbonyl)-1H-pyrazol-3-yl)acetamide], at FAAH, the IC50 lay within 1000 to 10000 nM and the inhibition at 1 µM is 0 to 25%. At MAGL [1], the IC50 was no more than 100 nM and the inhibition at 1 µM is no less than 75%. On MAGL [2], the inhibition at 5 mg/kg was 25 to 50%.

For `CC(=O)Nc1ccn(C(=O)N2CCC3(CCCN3Cc3ccc(Cl)cc3N3CCCCC3)CC2)n1` [Example 33, N-(1-(1-(4-chloro-2-(piperidin-1-yl)benzyl)-1,8-diazaspiro[4.5]decane-8-carbonyl)-1H-pyrazol-3-yl)acetamide], at FAAH, the IC50 was in the range of 1000 to 10000 nM and the inhibition at 1 µM fell in the range of 0 to 25%. Also, at MAGL [1], the IC50 was no more than 100 nM and the inhibition at 1 µM was no less than 75%. In addition, the inhibition at 5 mg/kg at MAGL [2] lay within 25 to 50%.

Regarding `CC(=O)Nc1ccn(C(=O)N2CCC3(CCCN3Cc3ccc(Cl)cc3N3CC4CCC(C3)O4)CC2)n1` [Example 34, N-(1-(1-(2-(8-oxa-3-azabicyclo[3.2.1]octan-3-yl)-4-chlorobenzyl)-1,8-diazaspiro[4.5]decane-8-carbonyl)-1H-pyrazol-3-yl)acetamide], the values for the IC50 on FAAH and on MAGL [1] were 1000 to 10000 nM and no more than 100 nM, respectively. For the same molecule, the inhibition at 1 µM on FAAH was 0 to 25%; on MAGL [1] it was no less than 75%. The inhibition at 5 mg/kg at MAGL [2] fell in the range of 0 to 25%.

For `CC(=O)Nc1ccn(C(=O)N2CCC3(CCCN3Cc3ccc(Cl)cc3N3CCC4(CC3)CCN(S(C)(=O)=O)C4)CC2)n1` [Example 37, N-(1-(1-(4-chloro-2-(2-(methylsulfonyl)-2,8-diazaspiro[4.5]decan-8-yl)benzyl)-1,8-diazaspiro[4.5]decane-8-carbonyl)-1H-pyrazol-3-yl)acetamide], the IC50 is 1000 to 10000 nM at FAAH and no more than 100 nM on MAGL [1]. The inhibition at 1 µM is 0 to 25% at FAAH and no less than 75% at MAGL [1]. In addition, the inhibition at 5 mg/kg on MAGL [2] lay in the range of 0 to 25%.

In the case of `CC(=O)Nc1ccn(C(=O)N2CCC3(CCCN3Cc3ccc(Cl)cc3N3CCC4(C3)CN(S(C)(=O)=O)C4)CC2)n1` [Example 38, N-(1-(1-(4-chloro-2-(2-(methylsulfonyl)-2,6-diazaspiro[3.4]octan-6-yl)benzyl)-1,8-diazaspiro[4.5]decane-8-carbonyl)-1H-pyrazol-3-yl)acetamide], on FAAH, the IC50 is 1000 to 10000 nM and the inhibition at 1 µM lay in the range of 0 to 25%. At MAGL [1], the half-inhibitory concentration (IC50) was no more than 100 nM and the inhibition at 1 µM is no less than 75%. For the same molecule, the inhibition at 5 mg/kg on MAGL [2] was in the range of 0 to 25%.

The values are drawn from patent US10519134B2, “Pyrazole compounds and methods of making and using same” (Lundbeck La Jolla Research Center, Inc., priority 2015, dated 2019).
